In ChEMBL document CHEMBL4138232, “O2-(2,4-dinitrophenyl)diazeniumdiolates derivatives: Design, synthesis, cytotoxic evaluation and reversing MDR in MCF-7/ADR cells” (Eur J Med Chem, 2018):

tested on: HCT-116; assay: Cytotoxicity against human HCT116 cells overexpressing GST-Pi assessed as inhibition of cell viability at 10 uM after 48 hrs by MTT assay relative to control; assay type: functional; conditions: HCT-116, 48 h

| Compound | inhibition at 10 µM [%] |
| --- | --- |
| COc1ccc(C2CC(c3cccc(Oc4cc(O/N=[N+](\[O-])N5CCOCC5)c([N+](=O)[O-])cc4[N+](=O)[O-])c3)=NN2C(C)=O)cc1OC (stereo unspecified) | 81.2 |
| COc1cc(C2CC(c3cccc(Oc4cc(O/N=[N+](\[O-])N5CCOCC5)c([N+](=O)[O-])cc4[N+](=O)[O-])c3)=NN2C(C)=O)cc(OC)c1OC (stereo unspecified) | 76.2 |

tested on: MDA-MB-231; assay: Antiproliferative activity against human MDA-MB-231 cells after 48 hrs by MTT assay relative to control; assay type: functional, cell-based; conditions: MDA-MB-231, 48 h

| Compound | IC50 [µM] |
| --- | --- |
| COc1ccc(C2CC(c3cccc(Oc4cc(O/N=[N+](\[O-])N5CCOCC5)c([N+](=O)[O-])cc4[N+](=O)[O-])c3)=NN2C(C)=O)cc1OC (stereo unspecified) | 0.66 |
| COc1cc(C2CC(c3cccc(Oc4cc(O/N=[N+](\[O-])N5CCOCC5)c([N+](=O)[O-])cc4[N+](=O)[O-])c3)=NN2C(C)=O)cc(OC)c1OC (stereo unspecified) | 1.44 |

tested on: HCT-116; assay: Antiproliferative activity against human HCT116 cells after 48 hrs by MTT assay relative to control; assay type: functional, cell-based; conditions: HCT-116, 48 h

| Compound | IC50 [µM] |
| --- | --- |
| COc1ccc(C2CC(c3cccc(Oc4cc(O/N=[N+](\[O-])N5CCOCC5)c([N+](=O)[O-])cc4[N+](=O)[O-])c3)=NN2C(C)=O)cc1OC (stereo unspecified) | 1.27 |
| COc1cc(C2CC(c3cccc(Oc4cc(O/N=[N+](\[O-])N5CCOCC5)c([N+](=O)[O-])cc4[N+](=O)[O-])c3)=NN2C(C)=O)cc(OC)c1OC (stereo unspecified) | 6.46 |

tested on: A549; assay: Antiproliferative activity against human A549 cells after 48 hrs by MTT assay relative to control; assay type: functional, cell-based; conditions: A549, 48 h

| Compound | IC50 [µM] |
| --- | --- |
| COc1ccc(C2CC(c3cccc(Oc4cc(O/N=[N+](\[O-])N5CCOCC5)c([N+](=O)[O-])cc4[N+](=O)[O-])c3)=NN2C(C)=O)cc1OC (stereo unspecified) | 1.54 |
| COc1cc(C2CC(c3cccc(Oc4cc(O/N=[N+](\[O-])N5CCOCC5)c([N+](=O)[O-])cc4[N+](=O)[O-])c3)=NN2C(C)=O)cc(OC)c1OC (stereo unspecified) | 6.11 |

tested on: U2OS; assay: Antiproliferative activity against human U2OS cells after 48 hrs by MTT assay relative to control; assay type: functional, cell-based; conditions: not given

| Compound | IC50 [µM] |
| --- | --- |
| COc1ccc(C2CC(c3cccc(Oc4cc(O/N=[N+](\[O-])N5CCOCC5)c([N+](=O)[O-])cc4[N+](=O)[O-])c3)=NN2C(C)=O)cc1OC (stereo unspecified) | 2.46 |
| COc1cc(C2CC(c3cccc(Oc4cc(O/N=[N+](\[O-])N5CCOCC5)c([N+](=O)[O-])cc4[N+](=O)[O-])c3)=NN2C(C)=O)cc(OC)c1OC (stereo unspecified) | 6.13 |

tested on: MCF-10A; assay: Antiproliferative activity against human MCF10A cells after 48 hrs by MTT assay relative to control; assay type: cell-based; conditions: not given

| Compound | IC50 [µM] |
| --- | --- |
| COc1ccc(C2CC(c3cccc(Oc4cc(O/N=[N+](\[O-])N5CCOCC5)c([N+](=O)[O-])cc4[N+](=O)[O-])c3)=NN2C(C)=O)cc1OC (stereo unspecified) | 10.1 |
| COc1cc(C2CC(c3cccc(Oc4cc(O/N=[N+](\[O-])N5CCOCC5)c([N+](=O)[O-])cc4[N+](=O)[O-])c3)=NN2C(C)=O)cc(OC)c1OC (stereo unspecified) | 59.4 |

tested on: not listed separately; assay: Selectivity ratio of IC50 for human MCF10A cells to IC50 for human MDA-MB-231 cells; assay type: toxicity; conditions: MCF10A cells versus MDA-MB-231 cells, read-out: Ratio IC50

| Compound | selectivity ratio |
| --- | --- |
| COc1ccc(C2CC(c3cccc(Oc4cc(O/N=[N+](\[O-])N5CCOCC5)c([N+](=O)[O-])cc4[N+](=O)[O-])c3)=NN2C(C)=O)cc1OC (stereo unspecified) | 15.3 |
| COc1cc(C2CC(c3cccc(Oc4cc(O/N=[N+](\[O-])N5CCOCC5)c([N+](=O)[O-])cc4[N+](=O)[O-])c3)=NN2C(C)=O)cc(OC)c1OC (stereo unspecified) | 41.2 |

tested on: not listed separately; assay: Selectivity ratio of IC50 for human HCT116 cells to IC50 for human MDA-MB-231 cells; assay type: functional; conditions: not given

| Compound | Ratio IC50 |
| --- | --- |
| COc1ccc(C2CC(c3cccc(Oc4cc(O/N=[N+](\[O-])N5CCOCC5)c([N+](=O)[O-])cc4[N+](=O)[O-])c3)=NN2C(C)=O)cc1OC (stereo unspecified) | 1.9 |
| COc1cc(C2CC(c3cccc(Oc4cc(O/N=[N+](\[O-])N5CCOCC5)c([N+](=O)[O-])cc4[N+](=O)[O-])c3)=NN2C(C)=O)cc(OC)c1OC (stereo unspecified) | 6.5 |

tested on: not listed separately; assay: Selectivity ratio of IC50 for human A549 cells to IC50 for human MDA-MB-231 cells; assay type: functional; conditions: not given

| Compound | Ratio IC50 |
| --- | --- |
| COc1ccc(C2CC(c3cccc(Oc4cc(O/N=[N+](\[O-])N5CCOCC5)c([N+](=O)[O-])cc4[N+](=O)[O-])c3)=NN2C(C)=O)cc1OC (stereo unspecified) | 2.3 |
| COc1cc(C2CC(c3cccc(Oc4cc(O/N=[N+](\[O-])N5CCOCC5)c([N+](=O)[O-])cc4[N+](=O)[O-])c3)=NN2C(C)=O)cc(OC)c1OC (stereo unspecified) | 4.2 |

tested on: not listed separately; assay: Selectivity ratio of IC50 for human U2OS cells to IC50 for human MDA-MB-231 cells; assay type: functional; conditions: not given

| Compound | Ratio IC50 |
| --- | --- |
| COc1ccc(C2CC(c3cccc(Oc4cc(O/N=[N+](\[O-])N5CCOCC5)c([N+](=O)[O-])cc4[N+](=O)[O-])c3)=NN2C(C)=O)cc1OC (stereo unspecified) | 3.7 |
| COc1cc(C2CC(c3cccc(Oc4cc(O/N=[N+](\[O-])N5CCOCC5)c([N+](=O)[O-])cc4[N+](=O)[O-])c3)=NN2C(C)=O)cc(OC)c1OC (stereo unspecified) | 4.2 |

molecular target: T1, Glutathione S-transferase P (Homo sapiens, UniProt P09211); assay: Prodrug activation in human HCT116 cells assessed as GST-Pi-mediated NO release at 5 uM by nitrate reductase assay; assay type: cell-based; conditions: not given
T1 sequence (P09211 whole entry): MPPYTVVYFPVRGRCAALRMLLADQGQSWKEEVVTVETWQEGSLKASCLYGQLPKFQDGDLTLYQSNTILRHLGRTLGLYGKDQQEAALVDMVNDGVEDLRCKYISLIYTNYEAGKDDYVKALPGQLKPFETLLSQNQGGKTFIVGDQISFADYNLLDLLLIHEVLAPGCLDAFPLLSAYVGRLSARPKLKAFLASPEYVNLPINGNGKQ

| Compound | Drug metabolism |
| --- | --- |
| COc1ccc(C2CC(c3cccc(Oc4cc(O/N=[N+](\[O-])N5CCOCC5)c([N+](=O)[O-])cc4[N+](=O)[O-])c3)=NN2C(C)=O)cc1OC (stereo unspecified) | Dose-dependent effect |
| COc1cc(C2CC(c3cccc(Oc4cc(O/N=[N+](\[O-])N5CCOCC5)c([N+](=O)[O-])cc4[N+](=O)[O-])c3)=NN2C(C)=O)cc(OC)c1OC (stereo unspecified) | Dose-dependent effect |

molecular target: T1, Glutathione S-transferase P; assay: Prodrug activation in human HCT116 cells assessed as GST-Pi-mediated NO release at 5 uM after 24 hrs by nitrate reductase assay; assay type: cell-based; conditions: not given

| Compound | Drug metabolism |
| --- | --- |
| COc1ccc(C2CC(c3cccc(Oc4cc(O/N=[N+](\[O-])N5CCOCC5)c([N+](=O)[O-])cc4[N+](=O)[O-])c3)=NN2C(C)=O)cc1OC (stereo unspecified) | Metabolite_Detected |

species: Homo sapiens; assay: Inhibition of MDR in human MCF7/ADR cells assessed as potentiation of adriamycin-induced antiproliferative activity by measuring fold reduction in adriamycin IC50 at 10 uM after 48 hrs by MTT assay; assay type: cell-based; conditions: not given

| Compound | fold change (FC) |
| --- | --- |
| COc1ccc(C2CC(c3cccc(Oc4cc(O/N=[N+](\[O-])N5CCOCC5)c([N+](=O)[O-])cc4[N+](=O)[O-])c3)=NN2C(C)=O)cc1OC (stereo unspecified) | 14.3 |
| COc1cc(C2CC(c3cccc(Oc4cc(O/N=[N+](\[O-])N5CCOCC5)c([N+](=O)[O-])cc4[N+](=O)[O-])c3)=NN2C(C)=O)cc(OC)c1OC (stereo unspecified) | 1.53 |

molecular target: T1, Glutathione S-transferase P; assay: Prodrug activation in human HCT116 cells assessed as GST-Pi-mediated NO release at 5 uM after 24 hrs in presence of NO scavenger carboxy-PTIO by nitrate reductase assay; assay type: cell-based; conditions: not given

| Compound | Drug metabolism |
| --- | --- |
| COc1ccc(C2CC(c3cccc(Oc4cc(O/N=[N+](\[O-])N5CCOCC5)c([N+](=O)[O-])cc4[N+](=O)[O-])c3)=NN2C(C)=O)cc1OC (stereo unspecified) | Metabolite_Notdetected |

molecular target: T1, Glutathione S-transferase P; assay: Prodrug activation in human HCT116 cells assessed as GST-Pi-mediated NO release at 5 uM after 24 hrs in presence of GST-Pi inhibitor etacrynic acid by nitrate reductase assay; assay type: cell-based; conditions: not given

| Compound | Drug metabolism |
| --- | --- |
| COc1ccc(C2CC(c3cccc(Oc4cc(O/N=[N+](\[O-])N5CCOCC5)c([N+](=O)[O-])cc4[N+](=O)[O-])c3)=NN2C(C)=O)cc1OC (stereo unspecified) | Metabolite_Notdetected |

tested on: not listed separately; assay: Cytotoxicity against ADR-sensitive human MCF7 cells assessed as inhibition of cell viability at 10 uM after 48 hrs by MTT assay relative to control; assay type: cell-based; conditions: read-out: INH

| Compound | cytotoxicity at 48 h, 10 µM [%] |
| --- | --- |
| COc1ccc(C2CC(c3cccc(Oc4cc(O/N=[N+](\[O-])N5CCOCC5)c([N+](=O)[O-])cc4[N+](=O)[O-])c3)=NN2C(C)=O)cc1OC (stereo unspecified) | 13 |
| COc1cc(C2CC(c3cccc(Oc4cc(O/N=[N+](\[O-])N5CCOCC5)c([N+](=O)[O-])cc4[N+](=O)[O-])c3)=NN2C(C)=O)cc(OC)c1OC (stereo unspecified) | 13.3 |

tested on: MCF7; assay: Cytotoxicity against ADR-sensitive human MCF7 cells assessed as inhibition of cell viability after 48 hrs by MTT assay; assay type: cell-based; conditions: MCF7, 48 h

| Compound | IC50 [µM] |
| --- | --- |
| COc1ccc(C2CC(c3cccc(Oc4cc(O/N=[N+](\[O-])N5CCOCC5)c([N+](=O)[O-])cc4[N+](=O)[O-])c3)=NN2C(C)=O)cc1OC (stereo unspecified) | 22.7 |
| COc1cc(C2CC(c3cccc(Oc4cc(O/N=[N+](\[O-])N5CCOCC5)c([N+](=O)[O-])cc4[N+](=O)[O-])c3)=NN2C(C)=O)cc(OC)c1OC (stereo unspecified) | 44.3 |
